According to PubChem BioAssay (NCI):
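All cell lines were grown in 96-well plates and treated with compound for 48 hours. Definition used: TGI = concentration required for complete inhibition of growth.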

What was measured:
Assay in all cases: inhibition of tumour cell growth, NCI panel, 48 h
TK-10 renal = system: TK-10 renal
SK-OV-3 ovarian = system: SK-OV-3 ovarian
M14 melanoma = system: M14 melanoma
HCT-116 colon = system: HCT-116 colon
SK-MEL-2 melanoma = system: SK-MEL-2 melanoma
786-0 renal = system: 786-0 renal
SF-295 CNS = system: SF-295 CNS
NCI-H226 lung = system: NCI-H226 lung
OVCAR-4 ovarian = system: OVCAR-4 ovarian
MALME-3M melanoma = system: MALME-3M melanoma
OVCAR-5 ovarian = system: OVCAR-5 ovarian
SNB-19 CNS = system: SNB-19 CNS
MDA-MB-435 = system: MDA-MB-435
EKVX NSCLC = system: EKVX NSCLC
HT29 colon = system: HT29 colon
HOP-62 NSCLC = system: HOP-62 NSCLC
MDA-MB-231 breast = system: MDA-MB-231 breast
MDA-N = system: MDA-N
UO-31 renal = system: UO-31 renal
A549 NSCLC = system: A549 NSCLC
NCI/ADR-RES ovarian = system: NCI/ADR-RES ovarian
HCC-2998 colon = system: HCC-2998 colon
IGROV1 ovarian = system: IGROV1 ovarian
CCRF-CEM leukemia = system: CCRF-CEM leukemia
T-47D breast = system: T-47D breast
RPMI-8226 leukemia = system: RPMI-8226 leukemia
HCT-15 colon = system: HCT-15 colon
SK-MEL-28 melanoma = system: SK-MEL-28 melanoma
OVCAR-8 ovarian = system: OVCAR-8 ovarian
SNB-75 CNS = system: SNB-75 CNS
SW-620 colon = system: SW-620 colon
ACHN renal = system: ACHN renal
HS 578T breast = system: HS 578T breast
SF-268 CNS = system: SF-268 CNS
UACC-257 melanoma = system: UACC-257 melanoma
SK-MEL-5 melanoma = system: SK-MEL-5 melanoma
NCI-H23 lung = system: NCI-H23 lung
MCF7 breast = system: MCF7 breast
SN12C renal = system: SN12C renal
A498 renal = system: A498 renal
U251 CNS = system: U251 CNS
K-562 leukemia = system: K-562 leukemia
RXF 393 renal = system: RXF 393 renal
NCI-H522 lung = system: NCI-H522 lung
DU-145 prostate = system: DU-145 prostate
HOP-92 NSCLC = system: HOP-92 NSCLC
NCI-H460 lung = system: NCI-H460 lung
CAKI-1 renal = system: CAKI-1 renal
PC-3 prostate = system: PC-3 prostate
COLO 205 colon = system: COLO 205 colon
SF-539 CNS = system: SF-539 CNS
MOLT-4 leukemia = system: MOLT-4 leukemia
LOX IMVI melanoma = system: LOX IMVI melanoma
KM12 colon = system: KM12 colon
OVCAR-3 ovarian = system: OVCAR-3 ovarian
HL-60(TB) leukemia = system: HL-60(TB) leukemia
SR leukemia = system: SR leukemia
UACC-62 melanoma = system: UACC-62 melanoma

For `O=C1c2c(ccc3c2CCC3)CC12Cc1ccccc1C2`, the TGI (TK-10 renal) was > 100 µM, the TGI (SK-OV-3 ovarian) was > 100 µM and the TGI (M14 melanoma) was > 100 µM. It also gave a TGI (HCT-116 colon) of 19.6 µM, a TGI (SK-MEL-2 melanoma) of 47.6 µM and a TGI (786-0 renal) of 91.5 µM. The TGI (SF-295 CNS) was > 100 µM, the TGI (NCI-H226 lung) was 62.8 µM and the TGI (OVCAR-4 ovarian) was > 100 µM. The TGI (MALME-3M melanoma) was 54 µM, the TGI (OVCAR-5 ovarian) was > 100 µM and the TGI (SNB-19 CNS) was > 100 µM. The TGI (MDA-MB-435) was > 100 µM, the TGI (EKVX NSCLC) was > 100 µM and the TGI (HT29 colon) was 47.1 µM. The TGI (HOP-62 NSCLC) was > 100 µM, the TGI (MDA-MB-231 breast) was 71.3 µM and the TGI (MDA-N) was 90.5 µM. For the same molecule, the TGI (UO-31 renal) was 59.7 µM, the TGI (A549 NSCLC) was > 100 µM and the TGI (NCI/ADR-RES ovarian) was > 100 µM. The TGI (HCC-2998 colon) was 89 µM, the TGI (IGROV1 ovarian) was > 100 µM and the TGI (CCRF-CEM leukemia) was 46.1 µM. The TGI (T-47D breast) was > 100 µM, the TGI (RPMI-8226 leukemia) was 44.3 µM and the TGI (HCT-15 colon) was > 100 µM. For the same molecule, the TGI (SK-MEL-28 melanoma) was 80.4 µM, the TGI (OVCAR-8 ovarian) was > 100 µM and the TGI (SNB-75 CNS) was 91.1 µM. For the same molecule, the TGI (SW-620 colon) was 93.7 µM, the TGI (ACHN renal) was > 100 µM and the TGI (HS 578T breast) was > 100 µM. The TGI (SF-268 CNS) was > 100 µM, the TGI (UACC-257 melanoma) was 57.4 µM and the TGI (SK-MEL-5 melanoma) was 24.3 µM. The TGI (NCI-H23 lung) was > 100 µM, the TGI (MCF7 breast) was > 100 µM and the TGI (SN12C renal) was > 100 µM. The TGI (A498 renal) was 96.2 µM, the TGI (U251 CNS) was > 100 µM and the TGI (K-562 leukemia) was 79.3 µM. The TGI (RXF 393 renal) was 40.4 µM, the TGI (NCI-H522 lung) was 73.7 µM and the TGI (DU-145 prostate) was > 100 µM. It also gave a TGI (HOP-92 NSCLC) of 41 µM, a TGI (NCI-H460 lung) of 96.1 µM and a TGI (CAKI-1 renal) of 43.6 µM. For the same molecule, the TGI (PC-3 prostate) was > 100 µM, the TGI (COLO 205 colon) was 53.1 µM and the TGI (SF-539 CNS) was 74.8 µM. It also gave a TGI (MOLT-4 leukemia) of 30.1 µM, a TGI (LOX IMVI melanoma) of 31 µM and a TGI (KM12 colon) of 51.4 µM. It also gave a TGI (OVCAR-3 ovarian) of 82.2 µM and a TGI (HL-60(TB) leukemia) of 34.9 µM.
`CCN(CCCl)c1cc(CN(C)C)cc(NC(=O)C23CCC(C(=O)Nc4cc(CN(C)C)cc(N(CC)CCCl)c4)(CC2)CC3)c1` gave a TGI (TK-10 renal) of 21.2 µM, a TGI (SK-OV-3 ovarian) of 4.24 µM and a TGI (M14 melanoma) of 14.8 µM. For the same molecule, the TGI (HCT-116 colon) was 5.33 µM, the TGI (SK-MEL-2 melanoma) was 4.35 µM and the TGI (786-0 renal) was 1 µM. The TGI (SF-295 CNS) was 11.9 µM, the TGI (NCI-H226 lung) was 4 µM and the TGI (OVCAR-4 ovarian) was 5.12 µM. It also gave a TGI (MALME-3M melanoma) of 3.21 µM, a TGI (OVCAR-5 ovarian) of 10.4 µM and a TGI (SNB-19 CNS) of 3.3 µM. The TGI (MDA-MB-435) was 3.08 µM, the TGI (SR leukemia) was 24.2 µM and the TGI (HT29 colon) was 1.95 µM. It also gave a TGI (HOP-62 NSCLC) of 2.76 µM, a TGI (MDA-MB-231 breast) of 26.6 µM and a TGI (MDA-N) of 2.38 µM. The TGI (UO-31 renal) was 30.9 µM, the TGI (A549 NSCLC) was 5.14 µM and the TGI (NCI/ADR-RES ovarian) was > 100 µM. It also gave a TGI (HCC-2998 colon) of 2.73 µM, a TGI (IGROV1 ovarian) of 3.28 µM and a TGI (CCRF-CEM leukemia) of 1.17 µM. The TGI (T-47D breast) was 19.2 µM, the TGI (RPMI-8226 leukemia) was > 100 µM and the TGI (HCT-15 colon) was 26.4 µM. The TGI (SK-MEL-28 melanoma) was 3.55 µM, the TGI (OVCAR-8 ovarian) was 3.16 µM and the TGI (SNB-75 CNS) was 8.33 µM. It also gave a TGI (SW-620 colon) of 1.65 µM, a TGI (ACHN renal) of 9.22 µM and a TGI (HS 578T breast) of 2.53 µM. For the same molecule, the TGI (SF-268 CNS) was 16 µM, the TGI (UACC-257 melanoma) was 15.5 µM and the TGI (SK-MEL-5 melanoma) was 3.33 µM. It also gave a TGI (NCI-H23 lung) of 4.71 µM, a TGI (MCF7 breast) of 2.01 µM and a TGI (SN12C renal) of 2.39 µM. The TGI (A498 renal) was 20.2 µM, the TGI (U251 CNS) was 11 µM and the TGI (K-562 leukemia) was 4.73 µM. The TGI (RXF 393 renal) was 3.18 µM, the TGI (NCI-H522 lung) was 1.47 µM and the TGI (DU-145 prostate) was 11.9 µM. It also gave a TGI (HOP-92 NSCLC) of 5.06 µM, a TGI (NCI-H460 lung) of 2.17 µM and a TGI (CAKI-1 renal) of 23.2 µM. For the same molecule, the TGI (UACC-62 melanoma) was 4.18 µM, the TGI (PC-3 prostate) was 1.95 µM and the TGI (COLO 205 colon) was 2.81 µM. The TGI (SF-539 CNS) was 2.15 µM, the TGI (MOLT-4 leukemia) was 0.503 µM and the TGI (LOX IMVI melanoma) was 1.57 µM. For the same molecule, the TGI (KM12 colon) was 3.17 µM and the TGI (HL-60(TB) leukemia) was > 100 µM.
